Measurements from patent US6670459B2, “Process for the isolation of novel oligospirostanoside” (Zandu Pharmaceutical Works Ltd., priority 2002, dated 2003).
Like-named read-outs stand apart in the source and are kept apart here. Marks after values point to notes of the source that are not given here.

What was measured:
immunecompromised mice [1] = assay type: in vivo
Experimental: (§1) 0 day: sensitization with 0.2 ml of 5×10^9 SRBC/ml i.p.
(§2) SRBC: Sheep red blood cell.
(§3) 5th day: measurement of foot thickness/Haemagglutination antibody titre

immunecompromised mice [2] = assay type: in vivo; remark: listed apart in the source
Experimental: as §1
4th day: challenged with 20 μl of 5×10^9 SRBC/ml into right hind footpad for DTH reaction only.
as §2, §3

[3] = immunecompromised mice, 0.0006 mg/kg p.o., days 0-4, day 5, n=12
[4] = immunecompromised mice, 0.0125 mg/kg p.o., days 0-4, day 5, n=12
[5] = oral, immunecompromised experimental animals, dose levels 0.0062-0.0125 mg Kg^-1
[6] = immunecompromised mice, 2.5 mg/kg p.o., days 0-4, day 5, n=12
[7] = mice, 250 mg/kg p.o., day 5, n=12

## C[C@H]1CC[C@@]2(OC1)O[C@H]1C[C@H]3[C@@H]4CC[C@@H]5C[C@@H](O[C@@H]6O[C@H](CO)[C@@H](O[C@@H]7O[C@@H](C)[C@H](O)[C@@H](O)[C@H]7O[C@@H]7O[C@@H](C)[C@H](O)[C@@H](O)[C@H]7O)[C@H](O)[C@H]6O)CC[C@]5(C)[C@H]4CC[C@]3(C)[C@H]1[C@@H]2C [AR-Iv, 3-0-[α-L-rhamnopyranosyl-(1→2)-α-L-rhamnopyranosyl-(1→4)-0-β-D-glucopyranosyl]-25(S)-5β-spirostan-3β-ol]
Immunecompromised mice [1]; [3]
  Antibody titre % change compared to control: 56** %
  Antibody titre mean ± S.E.: 5.60 ± 0.33
Immunecompromised mice [1]; [4]
  Antibody titre % change compared to control: 78*** %
  Antibody titre mean ± S.E.: 6.41 ± 0.16
Immunecompromised mice [1]; [5]
  potentiated antibody synthesis: 55.55-69.44%
Immunecompromised mice [2]; [3]
  DTH % change compared to control: 78*** %
  DTH mean ± S.E.: 0.80 ± 0.14
Immunecompromised mice [2]; [4]
  DTH % change compared to control: 102*** %
  DTH mean ± S.E.: 0.91 ± 0.42
Immunecompromised mice [2]; [5]
  enhanced cell-mediated immune response: 77.77-102.22%

## c1ccc([C@H]2CN3CCSC3=N2)cc1 [LEV, Levamisole, reference compound]
Immunecompromised mice [1]; [6]
  Antibody titre % change compared to control: 89*** %
  Antibody titre mean ± S.E.: 6.80 ± 0.30
Immunecompromised mice [2]; [6]
  DTH % change compared to control: 140*** %
  DTH mean ± S.E.: 1.08 ± 0.14

## Cyclodextrin [reference compound]
Immunecompromised mice [1]; [7]
  Antibody titre % change compared to control: 45* %
  Antibody titre mean ± S.E.: 3.60 ± 0.33
Immunecompromised mice [2]; [7]
  DTH % change compared to control: 23* %
  DTH mean ± S.E.: 0.45 ± 0.24
